Results as given in ChEMBL document CHEMBL3600288, “Development of Selective Covalent Janus Kinase 3 Inhibitors” (J Med Chem, 2015).

Legend:
Assay type in all cases: ADME, organism-based
[1] = Cmax in Swiss albino mouse at 2 mg/kg, iv; parameters: dose 2 mg/kg, route intravenous; details: in vivo
Mus musculus [2] = test: AUClast in Swiss albino mouse at 2 mg/kg, iv; parameters: dose 2 mg/kg, time 0 - last, route intravenous; details: in vivo
[3] = Volume of distribution at steady state in Swiss albino mouse at 2 mg/kg, iv; details: in vivo, read-out: Vdss
[4] = Tmax in Swiss albino mouse at 10 mg/kg, po; details: in vivo
[5] = Cmax in Swiss albino mouse at 10 mg/kg, po; parameters: dose 10 mg/kg, route oral; details: in vivo
Mus musculus [6] = test: AUClast in Swiss albino mouse at 10 mg/kg, po; parameters: dose 10 mg/kg, route oral, time 0 - last; details: in vivo
[7] = Oral bioavailability in Swiss albino mouse at 10 mg/kg; details: in vivo

- Cmax [1]: 159 ng/mL
- AUClast (Mus musculus [2]): 241.3 h/ng/mL
- Vd [3]: 18.4 L/kg
- Tmax [4]: 30 min
- Cmax [5]: 204 ng/mL
- AUClast (Mus musculus [6]): 795.29 h/ng/mL
- bioavailability [7]: 66%
SMILES: C=CC(=O)Nc1cccc(CNc2nc(Nc3ccc(N4CCN(C)CC4)cc3OC)ncc2Cl)c1
